US20040254162A1, “Oxazolidinone derivatives as antimicrobials” (priority 2001, published 2004)
Values after ≈ are worked out from the molar mass of the structure shown. Values joined by “and” are separate entries in the source; they are usually repeats but may differ in a detail not shown here. Equal entries are not always repeated. Where two headings read alike, the source gives them in different places.

Key:
[1] = system: Peptostreptococcus tetradius; assay: Agar dilution MIC, anaerobes; format: cell-based; details: Anaerococcus tetradius, single isolates, anaerobic agar dilution; read-out: MIC Peptostreptococcus tetradius
[2] = system: Fusobacterium necrogenes; assay: Agar dilution MIC, anaerobes; format: cell-based; details: single isolate, anaerobic agar dilution; for MIC: Fusobacterium necrogenes, read-out: MIC Fusobacterium necrogenes
[3] = system: anaerobic bacteria; assay: Agar dilution method for anaerobic bacteria, summary; format: cell-based
[4] = system: Fusobacterium montiferum; assay: Agar dilution MIC, anaerobes; format: cell-based; details: single isolates, anaerobic agar dilution; for MIC: Fusobacterium, read-out: MIC Fusobacterium montiferum
[5] = system: P. acnes; assay: Agar dilution MIC, anaerobes; format: cell-based; details: single isolates, anaerobic agar dilution; for MIC: Cutibacterium acnes, read-out: MIC P. acnes
[6] = system: Prevotella (Bacteroides) disiens; assay: Agar dilution MIC, anaerobes; format: cell-based; details: single isolates, anaerobic agar dilution; for MIC: read-out: MIC Prevotella (Bacteroides) disiens
[7] = system: Prevotella bivia; assay: Agar dilution MIC, anaerobes; format: cell-based; details: single isolate, anaerobic agar dilution; for MIC: Prevotella bivia, read-out: MIC Prevotella bivia
[8] = system: Eubacterium leutum; assay: Agar dilution MIC, anaerobes; format: cell-based; details: single isolates, anaerobic agar dilution; for MIC: Eubacterium, read-out: MIC Eubacterium leutum
[9] = system: Bacteroides fragilis; assay: Agar dilution MIC, anaerobes; format: cell-based; details: single isolates, anaerobic agar dilution; for MIC: Bacteroides fragilis, read-out: MIC Bacteroides fragilis
[10] = system: Porphyromonas gingivalis; assay: Agar dilution MIC, anaerobes; format: cell-based; details: single isolate, anaerobic agar dilution; for MIC: Porphyromonas gingivalis, read-out: MIC Porphyromonas gingivalis
[11] = system: Clostridium difficile; assay: Agar dilution MIC, anaerobes; format: cell-based; details: single isolates, anaerobic agar dilution; for MIC: Clostridioides difficile, read-out: MIC Clostridium difficile
[12] = system: Porphyromonas asaccharolytica; assay: Agar dilution MIC, anaerobes; format: cell-based; details: single isolate, anaerobic agar dilution; for MIC: Porphyromonas asaccharolytica, read-out: MIC Porphyromonas asaccharolytica
[13] = system: Peptostreptococcus prevotii; assay: Agar dilution MIC, anaerobes; format: cell-based; details: single isolates, anaerobic agar dilution; for MIC: Anaerococcus prevotii, read-out: MIC Peptostreptococcus prevotii
[14] = system: Clostridium camis; assay: Agar dilution MIC, anaerobes; format: cell-based; details: single isolates, anaerobic agar dilution; for MIC: Clostridium, read-out: MIC Clostridium camis
[15] = system: Prevotella melaninogenica; assay: Agar dilution MIC, anaerobes; format: cell-based; details: single isolates, anaerobic agar dilution; for MIC: Prevotella melaninogenica, read-out: MIC Prevotella melaninogenica
[16] = system: Clostridium perfringens; assay: microbe, parasite or virus in culture; format: cell-based
[17] = system: Fusobacterium varium; assay: Agar dilution MIC, anaerobes; format: cell-based; details: single isolates, anaerobic agar dilution; for MIC: Fusobacterium varium, read-out: MIC Fusobacterium varium
[18] = system: Prevotella intermedia; assay: Agar dilution MIC, anaerobes; format: cell-based; details: single isolates, anaerobic agar dilution; for MIC: Prevotella intermedia, read-out: MIC Prevotella intermedia
[19] = system: Peptostreptococcus micros; assay: Agar dilution MIC, anaerobes; format: cell-based; details: single isolates, anaerobic agar dilution; for MIC: Parvimonas micra, read-out: MIC Peptostreptococcus micros
[20] = system: Fusobacterium nucleatum; assay: Agar dilution MIC, anaerobes; format: cell-based; details: single isolates, anaerobic agar dilution; for MIC: Fusobacterium nucleatum, read-out: MIC Fusobacterium nucleatum
[21] = system: Peptostreptococcus asaccharolyticus; assay: Agar dilution MIC, anaerobes; format: cell-based; details: single isolates, anaerobic agar dilution
[22] = system: Peptostreptococcus magnum; assay: Agar dilution MIC, anaerobes; format: cell-based; details: single isolates, anaerobic agar dilution
[23] = system: Mycobacterium avium intracellulare; assay: Agar dilution method, mycobacteria; format: cell-based; details: for MIC50 / MIC90: Mycobacterium avium, 504 h, Middlebrook 7H10 agar, 21 days; for MIC50: read-out: MIC50; for MIC90: read-out: MIC90
[24] = system: Mycobacterium tuberculosis; assay: microbe, parasite or virus in culture; details: 504 h
[25] = system: Mycobacterium tuberculosis
[26] = anaerobes, Wilkins Chalgren agar, 48 hour

| Compound | MIC [1] [µg/mL] | MIC [2] [µg/mL] | Geometric Mean ([3]; anaerobes) [µg/mL] | MIC Range ([3]; anaerobes) [µg/mL] | MIC [5] [µg/mL] | MIC Prevotella (Bacteroides) disiens [6] | MIC [8] [µg/mL] | MIC Eubacterium leutum [8] [µg/mL] | MIC Bacteroides fragilis [9] [µg/mL] | MIC [10] [µg/mL] | MIC [12] [µg/mL] | MIC [13] [µg/mL] | MIC [14] [µg/mL] | MIC Prevotella melaninogenica [15] | MIC [18] [µg/mL] | MIC Prevotella intermedia [18] [µg/mL] | MIC50 [23] [µg/mL] | MIC90 [23] [µg/mL] | MIC50 [24] [µg/mL] | MIC90 [24] [µg/mL] | other results |
| --- | --- | --- | --- | --- | --- | --- | --- | --- | --- | --- | --- | --- | --- | --- | --- | --- | --- | --- | --- | --- | --- |
| Cc1ncc([N+](=O)[O-])n1CCO [Metronidazole] | 1 (≈ 5.84 µM) | 0.25 (≈ 1.46 µM) | 0.48 | 0.062 to 32 | > 16 | 1 µg/mL (≈ 5.84 µM) | 0.25 (≈ 1.46 µM) | 0.5 (≈ 2.92 µM) | 1 (≈ 5.84 µM) | ≤ 0.125 | ≤ 0.125 | 2 (≈ 11.7 µM) | ≤ 0.125 | 0.5 µg/mL (≈ 2.92 µM) | 0.5 (≈ 2.92 µM) | 0.25 (≈ 1.46 µM) | – | – | – | – | MIC50 ([3]; 48 h): 0.5 µg/mL (≈ 2.92 µM); MIC90 ([3]; 48 h): 2 µg/mL (≈ 11.7 µM); MIC [4]: ≤ 0.125 µg/mL; MIC [6]: 0.5 µg/mL (≈ 2.92 µM); MIC [7]: 1 µg/mL (≈ 5.84 µM); MIC [9]: 0.5 µg/mL (≈ 2.92 µM); MIC [11]: 0.25 µg/mL (≈ 1.46 µM); MIC Peptostreptococcus prevotii [13]: 1 µg/mL (≈ 5.84 µM); MIC [15]: 0.25 µg/mL (≈ 1.46 µM); MIC ([16]; Clostridium perfringens, read-out: MIC Clostridium perfringens, single isolates, anaerobic agar dilution): 1 µg/mL (≈ 5.84 µM); MIC [17]: ≤ 0.125 µg/mL; MIC [19]: 0.25 µg/mL (≈ 1.46 µM); MIC Peptostreptococcus micros [19]: 0.5 µg/mL (≈ 2.92 µM) |
| COc1c(N2C[C@@H]3CCCN[C@@H]3C2)c(F)cc2c(=O)c(C(=O)O)cn(C3CC3)c12 [Moxifloxacin] | 0.5 (≈ 1.25 µM) | 1 (≈ 2.49 µM) | – | – | 0.25 (≈ 0.623 µM) | 0.5 µg/mL (≈ 1.25 µM) | 0.5 (≈ 1.25 µM) | – | 0.5 (≈ 1.25 µM) | 0.03 (≈ 0.0747 µM) | 0.5 (≈ 1.25 µM) | 0.25 (≈ 0.623 µM) | 0.25 (≈ 0.623 µM) | – | 0.5 (≈ 1.25 µM) | – | – | – | – | – | MIC [4]: 0.25 µg/mL (≈ 0.623 µM); MIC Fusobacterium montiferum [4]: 0.5 µg/mL (≈ 1.25 µM); MIC P. acnes [5]: 0.125 µg/mL (≈ 0.311 µM); MIC [6]: 0.25 µg/mL (≈ 0.623 µM); MIC [9]: 0.25 µg/mL (≈ 0.623 µM); MIC [20]: 0.125 µg/mL (≈ 0.311 µM); MIC Fusobacterium nucleatum [20]: 0.25 µg/mL (≈ 0.623 µM); MIC ([21]; Peptoniphilus asaccharolyticus): 0.125 µg/mL (≈ 0.311 µM); MIC Peptostreptococcus asaccharolyticus [21]: 0.25 µg/mL (≈ 0.623 µM) |
| CC1(C)S[C@@H]2[C@H](NC(=O)[C@H](N)c3ccc(O)cc3)C(=O)N2[C@H]1C(=O)O [Amox] | – | – | 1.366 | 0.062 to 256 | – | >128 µg/mL | – | 1 (≈ 2.74 µM) | – | – | – | – | – | 64 µg/mL (≈ 175 µM) | – | 4 (≈ 10.9 µM) | – | – | – | – | MIC Fusobacterium necrogenes [2]: 0.5 µg/mL (≈ 1.37 µM); MIC50 [3, 26]: 1 µg/mL (≈ 2.74 µM); MIC90 [3, 26]: 256 µg/mL (≈ 701 µM); MIC P. acnes [5]: 0.25 µg/mL (≈ 0.684 µM); MIC Clostridium difficile [11]: 1 µg/mL and 2 µg/mL; MIC Peptostreptococcus prevotii [13]: 0.25 µg/mL (≈ 0.684 µM); MIC Peptostreptococcus magnum [22]: 0.25 µg/mL and 0.5 µg/mL; MIC Fusobacterium varium [17]: 1 µg/mL (≈ 2.74 µM); MIC Peptostreptococcus asaccharolyticus [21]: 0.25 µg/mL (≈ 0.684 µM) |
| C[C@@H](O)[C@H]1C(=O)N2C(C(=O)O)=C(SCCN=CN)C[C@H]12 [Imipenem] | 0.03 (≈ 0.1 µM) | 0.25 (≈ 0.835 µM) | 0.084 | 0.008 to 4 | ≤ 0.016 | – | 0.25 (≈ 0.835 µM) | 0.5 (≈ 1.67 µM) | – | ≤ 0.016 | 0.03 (≈ 0.1 µM) | ≤ 0.016 | 0.06 (≈ 0.2 µM) | – | ≤ 0.016 | – | – | – | – | – | MIC50 ([3]; 48 h): 0.064 µg/mL (≈ 0.214 µM); MIC90 ([3]; 48 h): 1 µg/mL (≈ 3.34 µM); MIC [7]: 0.03 µg/mL (≈ 0.1 µM); MIC [11]: 4 µg/mL (≈ 13.4 µM); MIC [20]: ≤ 0.016 µg/mL; MIC [15]: ≤ 0.016 µg/mL; MIC [17]: 0.5 µg/mL (≈ 1.67 µM); MIC Fusobacterium varium [17]: 1 µg/mL (≈ 3.34 µM); MIC [19]: 0.03 µg/mL (≈ 0.1 µM) |
| CO[C@H]1/C=C/O[C@@]2(C)Oc3c(C)c(O)c4c(O)c(c(/C=N/N5CCN(C)CC5)c(O)c4c3C2=O)NC(=O)/C(C)=C\C=C\[C@H](C)[C@H](O)[C@@H](C)[C@@H](O)[C@@H](C)[C@H](OC(C)=O)[C@@H]1C [Rifampicin] | – | – | – | – | – | – | – | – | – | – | – | – | – | – | – | – | 1 (≈ 1.22 µM) | 32 (≈ 38.9 µM) | 64 (≈ 77.8 µM) | 64 (≈ 77.8 µM) | G.M. [23]: 1.999 µg/mL; G.M. [25]: 6.35 µg/mL |
| C[C@@H]1CN(c2c(F)c(N)c3c(=O)c(C(=O)O)cn(C4CC4)c3c2F)C[C@H](C)N1 [Sparfloxacin] | – | – | – | – | – | – | – | – | – | – | – | – | – | – | – | – | 4 (≈ 10.2 µM) | 8 (≈ 20.4 µM) | 1 (≈ 2.55 µM) | 2 (≈ 5.1 µM) | G.M. ([23]; geometric mean MIC): 3.526 µg/mL; G.M. ([25]; geometric mean MIC): 0.53 µg/mL |
| NNC(=O)c1ccncc1 [Isoniazid] | – | – | – | – | – | – | – | – | – | – | – | – | – | – | – | – | 32 (≈ 233 µM) | 64 (≈ 467 µM) | 8 (≈ 58.3 µM) | 64 (≈ 467 µM) | G.M. ([23]; geometric mean MIC): 18.149 µg/mL; G.M. ([25]; geometric mean MIC): 3.17 µg/mL |
| Teicoplanin | – | – | 2.04 | 0.03 to 32 | – | 16 µg/mL and >16 µg/mL | – | – | >16 | – | – | – | – | 2 µg/mL and 4 µg/mL | – | 0.5 | – | – | – | – | MIC Fusobacterium necrogenes [2]: >16 µg/mL; MIC50 [3, 26]: 2 µg/mL; MIC90 [3, 26]: 32 µg/mL; MIC Fusobacterium montiferum [4]: >16 µg/mL; MIC P. acnes [5]: 0.25 µg/mL; MIC Prevotella bivia [7]: 1 µg/mL; MIC Porphyromonas gingivalis [10]: <=.06 μg/ml; MIC Clostridium difficile [11]: 0.25 µg/mL; MIC Porphyromonas asaccharolytica [12]: 0.125 µg/mL; MIC Clostridium camis [14]: <=.06 μg/ml; MIC Fusobacterium nucleatum [20]: >16 µg/mL; MIC Clostridium perfringens ([16]; single isolates, anaerobic agar dilution): <=.06 μg/ml; MIC Fusobacterium varium [17]: >16 µg/mL; MIC Peptostreptococcus asaccharolyticus [21]: 0.125 µg/mL |
| CC[C@H]1OC(=O)[C@H](C)[C@@H](O[C@H]2C[C@@](C)(OC)[C@@H](O)[C@H](C)O2)[C@H](C)[C@@H](O[C@@H]2O[C@H](C)C[C@H](N(C)C)[C@H]2O)[C@](C)(OC)C[C@@H](C)C(=O)[C@H](C)[C@@H](O)[C@]1(C)O [Clarithromycin] | – | – | – | – | – | – | – | – | – | – | – | – | – | – | – | – | 1 (≈ 1.34 µM) | 4 (≈ 5.35 µM) | 16 (≈ 21.4 µM) | 32 (≈ 42.8 µM) | G.M. ([23]; geometric mean MIC): 1.554 µg/mL; G.M. ([25]; geometric mean MIC): 12.69 µg/mL |
